These results are taken from patent US10807994B2, “Heterocyclic compounds and uses thereof” (NUVATION BIO INC., priority 2017, dated 2020).

Counter-ions that a name gives are not always drawn. Like-named read-outs stand apart in the source and are kept apart here.

In one assay the target is WEE1 kinase enzyme (Homo sapiens (Human), UniProt P30291). The assay is described as follows: WEE1 IC50 determination, LanthaScreen Terbium labeled TR-FRET kinase assay. The assay is classed as biochemical. The note with it: WEE1 enzyme 1 nM. On the procedure: IC50 values of compounds against WEE1 kinase enzyme were determined by LanthaScreen™ Terbium Labeled TR-FRET assay. Kinase assays were performed in 1× kinase buffer (# PV6135, Invitrogen, Life Technologies Grand Island, N.Y.) where total reaction volume was 10 μl in low-volume 384-well plates (#4511, Corning). Serially diluted compounds (3-fold) were incubated with WEE1 Enzyme (1 nM) (# PR7373A, Invitrogen, Life Technologies Grand Island, N.Y.) for 10 min, following which a mixture of ATP […] (# A1852, Sigma, St-Louis, Mo.) and fluorescent-PolyGT substrate (200 nM) (# PV3610, Invitrogen, Life Technologies Grand Island, N.Y.) was added and incubated in dark at room temperature for 1 h. After 1 h, 10 μl stop solution containing Terbium labeled antibody (4 nM) (# PV3529, Invitrogen, Life Technologies Grand Island, N.Y.) and EDTA (# E5134, Sigma, St-Louis, Mo.) (20 mM) in TR-FRET dilution buffer (# PV3574, Invitrogen, Life Technologies Grand Island, N.Y.) was added. Readings were taken in a Synergy Neo Plate reader (BioTek, Winooski) at single excitation of 340 nm and Dual emission at 495 nm and 520 nm respectively.
Sequence of WEE1 kinase enzyme (P30291 whole entry): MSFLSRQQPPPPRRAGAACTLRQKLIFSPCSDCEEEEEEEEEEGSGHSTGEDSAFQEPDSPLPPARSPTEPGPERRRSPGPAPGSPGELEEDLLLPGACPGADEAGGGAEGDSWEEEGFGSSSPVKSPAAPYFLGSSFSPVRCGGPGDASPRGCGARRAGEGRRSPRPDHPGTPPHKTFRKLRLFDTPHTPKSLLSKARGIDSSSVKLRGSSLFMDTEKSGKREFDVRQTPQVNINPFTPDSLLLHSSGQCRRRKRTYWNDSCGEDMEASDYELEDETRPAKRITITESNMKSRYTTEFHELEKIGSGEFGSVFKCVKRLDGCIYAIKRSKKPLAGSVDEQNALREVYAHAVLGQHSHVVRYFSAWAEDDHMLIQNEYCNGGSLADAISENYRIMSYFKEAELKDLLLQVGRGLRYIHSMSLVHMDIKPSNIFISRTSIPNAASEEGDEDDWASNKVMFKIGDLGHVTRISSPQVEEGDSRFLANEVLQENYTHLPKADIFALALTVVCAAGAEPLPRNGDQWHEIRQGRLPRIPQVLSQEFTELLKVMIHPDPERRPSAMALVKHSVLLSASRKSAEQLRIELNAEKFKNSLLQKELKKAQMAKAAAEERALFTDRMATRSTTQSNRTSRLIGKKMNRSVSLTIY
The % activity of test samples was calculated as (Sample−Min)*100/(Max−Min). [Max: DMSO control, complete reaction with enzyme & DMSO and Min: No enzyme & DMSO]. Percent inhibition (100-% activity) was fitted to the “four-parameter logistic model” in XLfit for determination of IC50 values.
(In general: In TR-FRET formats the signal depends on donor and acceptor labels being close together.)

The test system of assay [1] is A427 cells. Nature of the assay: Cytotoxicity assay (resazurin), A427 cells, 72 hr. Format: cell-based. On the procedure:
(§1) A549 (CCL-185; ATCC) and A427 (HTB-53; ATCC), both lung epithelial cell lines were seeded in their respective medium (DMEM/MEM, 10569044/41090101; Gibco) at a cell count of 1500 cells per 100 μL per well in a 96 well edge plate (167425; ThermoFisher). Cells were allowed to grow at 37° C. for 24 hr in 5% CO2 environment (culture conditions) in a Nuaire incubator (humidified). Serially diluted test compounds (100 μL) within the desired testing concentration ranges were added to the culture plate were further incubated in culture conditions for 72 hr and 96 hr for A427 and A549 respectively. The experiment was terminated at the designated incubation time by replacing the medium with 100 μL of 1 mM of resazurin (R7017; Sigma) prepared in respective culture medium, and the plates were further incubated in culture conditions for 4-6 hr. Fluorescence was recorded using a multimodal plate reader (Biotek Synergy Neo) at an excitation wavelength of 535 nm and emission wavelength of 590 nm to obtain relative fluorescence units. Data analysis was done by subtracting the background fluorescence (only medium blank) value from each reading and then normalizing with the vehicle control (DMSO treated cells) to obtain percent survival/proliferation. Percent survival was then subtracted by 100 to get the percent inhibition of proliferation which was used to calculate IC50 values. Potency of compounds in other cell lines (As-Pc-1, Panc-10.05, MDAMB231, A172) was determined in an analogous manner.
In general terms: Alamar Blue is a resazurin reagent that responds to reducing activity.

The subject of a further assay is A549 cells. The assay is described as follows: Cytotoxicity assay (resazurin), A549 cells, 96 hr. The assay is classed as cell-based. The note with it: read-out: Cell Viability A549 IC50. The procedure: as §1
Assay [2] concerns A427 cells. The assay is described as follows: Cell proliferation assay (Cell Titer-Glo), A427 cells. Format: cell-based. The settings on record: Homo sapiens, A-427, typically 72 hrs post-treatment. On the procedure:
The effects of test compounds were studied in five cell lines with various histotypes. The cancer cells (Table 4) were harvested during the logarithmic growth period and counted. Adjust cell concentrations to the appropriated number with respective medium, and add 90 μL cell suspensions to 96-well plates. After cells were seeded, the plates were shaken gently to distribute cells evenly and incubated at 37° C., 5% CO2 on day 1.
Cells were treated with test compounds at 9 concentrations within a desired concentration range (e.g. 1.5 nM-10 μM) on day 2 by series diluting the test compound stock solution (10 mM in DMSO) with culture medium. Cell viability was assessed by Cell Titer-Glo® as recommended by Promega (Cat. No.: G7572, Promega) typically 72 hrs post-treatment.
Cell viability data were plotted using GraphPad Prism (version 5, GraphPad Software, Inc., San Diego, Calif.). In addition, a nonlinear regression model with a sigmoidal dose response and variable slope within GraphPad Prism was used to calculate the IC50 value of individual test compounds.
Background: Cellular ATP, detected with luciferase, serves as a proxy for viable cell number.

Setting [3] is: Homo sapiens, A-427, read-out: Cell Viability A427 IC50.

For orientation: IC50 means the concentration that gives 50% inhibition.

As to `O=C1c2cnc(Nc3ccc(N4CCNCC4)c(Cl)c3)nc2OCN1c1c(Cl)cccc1Cl` [Example 1.40, 7-(3-chloro-4-(piperazin-1-yl)phenylamino)-3-(2,6-dichlorophenyl)-2H-pyrimido[5,4-e][1,3]oxazin-4(3H)-one], the IC50 stood at 0.02 µM on WEE1 kinase enzyme, 2.65 µM in the assay with A427 cells [1] (setting [3]) and 2.73 µM in the assay on A549 cells (Homo sapiens).
The corresponding values for `CN1CCC(c2ccc(Nc3ncc4c(n3)OCN(c3c(Cl)cccc3Cl)C4=O)cc2)CC1` [Example 1.52, 3-(2,6-dichlorophenyl)-7-(4-(1-methylpiperidin-4-yl)phenylamino)-2H-pyrimido[5,4-e][1,3]oxazin-4(3H)-one] are 0.0505 µM, 3.35 µM and 4.72 µM.
Consider `O=C1c2cnc(Nc3ccc(N4CCNCC4)cc3)nc2OCN1c1c(Cl)cccc1Cl` [Example 1.5], for which the IC50 with A427 cells [2] came out at 4.29 µM; at WEE1 kinase enzyme, 0.069 µM; with A427 cells [1] (setting [3]), 3.91 µM; with A549 cells (Homo sapiens) it was 3.78 µM.
On to `CNCCOc1ccc(Nc2ncc3c(n2)OCN(c2c(Cl)cccc2Cl)C3=O)cc1` [Example 1.48, 3-(2,6-dichlorophenyl)-7-(4-(2-(methylamino)ethoxy)phenylamino)-2H-pyrimido[5,4-e][1,3]oxazin-4(3H)-one], for which the IC50 is 0.103 µM at WEE1 kinase enzyme, 11.1 µM with A427 cells [1] (setting [3]) and 8.38 µM in the assay on A549 cells (Homo sapiens).
In the case of `Cc1cc(Nc2ncc3c(n2)OCN(c2c(Cl)cccc2Cl)C3=O)ccc1N1CCNCC1` [Example 1.33, 3-(2,6-dichlorophenyl)-7-(3-methyl-4-(piperazin-1-yl)phenylamino)-2H-pyrimido[5,4-e][1,3]oxazin-4(3H)-one], the IC50 at WEE1 kinase enzyme was 0.05 µM; in the assay on A427 cells [1] (setting [3]) it was 2.82 µM; with A549 cells (Homo sapiens) it was 2.69 µM.
As to `C[C@@H]1CN[C@@H](C)CN1c1ccc(Nc2ncc3c(n2)OCN(c2c(Cl)cccc2Cl)C3=O)cc1` [Example 1.47, 3-(2,6-dichlorophenyl)-7-(4-((2R,5S)-2,5-dimethylpiperazin-1-yl)phenylamino)-2H-pyrimido[5,4-e][1,3]oxazin-4(3H)-one hydrochloride], the IC50 at WEE1 kinase enzyme amounted to 0.07 µM; in the assay on A427 cells [1] (setting [3]), 7.1 µM; with A549 cells (Homo sapiens), 4.1 µM.
As to `O=C1c2cnc(Nc3ccc(N4CCNCC4)nc3)nc2OCN1c1c(Cl)cccc1Cl` [Example 1.36, 3-(2,6-dichlorophenyl)-7-((6-(piperazin-1-yl)pyridin-3-yl)amino)-2,3-dihydro-4H-pyrimido[5,4-e][1,3]oxazin-4-one], the IC50 at WEE1 kinase enzyme is 0.104 µM; with A427 cells [1] (setting [3]), 10.4 µM; with A549 cells (Homo sapiens), 8.12 µM.
As for `CNCC(=O)N1CCN(c2ccc(Nc3ncc4c(n3)OCN(c3c(Cl)cccc3Cl)C4=O)cc2)CC1` [Example 1.57, 3-(2,6-dichlorophenyl)-7-(4-(4-(2-(methylamino)acetyl)piperazin-1-yl)phenylamino)-2H-pyrimido[5,4-e][1,3]oxazin-4(3H)-one hydrochloride], the IC50 on WEE1 kinase enzyme was determined as 0.101 µM; with A427 cells [1] (setting [3]), 4.86 µM; in the assay on A549 cells (Homo sapiens) it was 6.23 µM.
`CN1CCN(c2ccc(Nc3ncc4c(n3)OCN(c3c(Cl)cccc3Cl)C4=O)cc2CO)CC1` [Example 1.20]: the IC50 with A427 cells [2] turned out to be 3.64 µM; on WEE1 kinase enzyme it was 0.048 µM; in the assay with A427 cells [1] (setting [3]), 5.5 µM; in the assay with A549 cells (Homo sapiens), 6.02 µM.
Take `CN1CCC(c2ccc(Nc3ncc4c(n3)OCN(c3c(Cl)cccc3Cl)C4=O)cc2CO)CC1` [Example 1.42, 3-(2,6-dichlorophenyl)-7-(3-(hydroxymethyl)-4-(1-methylpiperidin-4-yl)phenylamino)-2H-pyrimido[5,4-e][1,3]oxazin-4(3H)-one]: the values for the concentration for half-maximal inhibition (IC50) at WEE1 kinase enzyme, in the assay on A427 cells [1] (setting [3]) and in the assay with A549 cells (Homo sapiens) were 0.025 µM, 3.2 µM and 5.6 µM, respectively.
In the case of `O=C1c2cnc(Nc3ccc(N4CCNCC4)cc3)nc2OCN1c1c(F)cccc1Cl` [Example 1.27], the concentration for half-maximal inhibition (IC50) with A427 cells [2] was determined as 7.75 µM; at WEE1 kinase enzyme it was 0.052 µM; in the assay on A427 cells [1] (setting [3]) it was 6.97 µM; in the assay with A549 cells (Homo sapiens), 4.39 µM.
On to `C[C@@H]1CNCCN1c1ccc(Nc2ncc3c(n2)OCN(c2c(Cl)cccc2Cl)C3=O)cc1` [Example 1.49, (R)-3-(2,6-dichlorophenyl)-7-(4-(2-methylpiperazin-1-yl)phenylamino)-2H-pyrimido[5,4-e][1,3]oxazin-4(3H)-one], for which the results for the IC50 on WEE1 kinase enzyme, in the assay on A427 cells [1] (setting [3]) and in the assay with A549 cells (Homo sapiens) were 0.041 µM, 5.42 µM and 4.39 µM, respectively.
In the case of `O=C1c2cnc(Nc3ccc(N4CCN(CCO)CC4)cc3)nc2OCN1c1c(Cl)cccc1Cl` [Example 1.58, 3-(2,6-dichlorophenyl)-7-(4-(4-(2-hydroxyethyl)piperazin-1-yl)phenylamino)-2H-pyrimido[5,4-e][1,3]oxazin-4(3H)-one], the figures for the IC50 on WEE1 kinase enzyme, in the assay on A427 cells [1] (setting [3]) and in the assay with A549 cells (Homo sapiens) were 0.234 µM, 7.12 µM and 12.3 µM, respectively.
Turning to `O=C1c2cnc(Nc3ccc(C4CCNCC4)c(CO)c3)nc2OCN1c1c(Cl)cccc1Cl` [Example 1.34, 3-(2,6-dichlorophenyl)-7-(3-(hydroxymethyl)-4-(piperidin-4-yl)phenylamino)-2H-pyrimido[5,4-e][1,3]oxazin-4(3H)-one], the IC50 on WEE1 kinase enzyme worked out at 0.014 µM; with A427 cells [1] (read-out: Cell Viability A427 IC50), 4.81 µM; in the assay with A549 cells it was 21 µM.
As for `O=C1c2cnc(Nc3ccc(N4CCCC4)cc3)nc2OCN1c1c(Cl)cccc1Cl` [Example 1.56, 3-(2,6-dichlorophenyl)-7-(4-(pyrrolidin-1-yl)phenylamino)-2H-pyrimido[5,4-e][1,3]oxazin-4(3H)-one], the IC50 is greater than 5 µM on WEE1 kinase enzyme, 10.5 µM in the assay with A427 cells [1] (setting [3]) and 1.86 µM in the assay with A549 cells (Homo sapiens).
The corresponding values for `CN1CCN(c2ccc(Nc3ncc4c(n3)OCN(c3c(Cl)cccc3Cl)C4=O)cc2)CC1` [Example 1.1] are 0.056 µM, 4.47 µM and 9.7 µM.
As to `COc1cc(Nc2ncc3c(n2)OCN(c2c(Cl)cccc2Cl)C3=O)ccc1C1CCNCC1` [Example 1.50, 3-(2,6-dichlorophenyl)-7-(3-methoxy-4-(piperidin-4-yl)phenylamino)-2H-pyrimido[5,4-e][1,3]oxazin-4(3H)-one], the IC50 on WEE1 kinase enzyme is 0.028 µM; in the assay with A427 cells [1] (setting [3]) it was 3.48 µM; in the assay on A549 cells (Homo sapiens), 2.79 µM.
